Target: PARP-1 enzyme (Homo sapiens (Human), UniProt P09874)
Test: PARP enzyme activity assay (HT Universal Chemiluminescent PARP Assay Kit, histone-coated wells)
Type: biochemical
Conditions: for inhibition at 0.03 µM: read-out: Inhibition (%) at 30 nM; for inhibition at 0.1 µM: read-out: Inhibition (%) at 100 nM
Protocol: PARP is an enzyme responsible for post-translational modification, which may be activated by means of DNA damage. The process catalyzed by PARP in vivo is mainly NAD-dependent poly(ADP-ribosyl)ation, in which the substrates are mainly some nuclear proteins including PARP, one example of which is histone. In the present invention, the PARP activity is assayed by determining the poly(ADP-ribosyl)ation degree of histone coated in a 96-well plate in the presence of NAD, and the PARP activity under the action of a PARP inhibitor is correspondingly assayed, thereby evaluating the degree of inhibition of the compounds on PARP activity. Poly(ADP-ribosyl)ation of nuclear proteins is a post-translational modification occurred in response to DNA damage. PARP is the abbreviation of poly(ADP-ribose)polymerase, which catalyzes the attachment of poly(ADP-ribose) to an adjacent nuclear protein in the presence of NAD, thus eliciting a mechanism of DNA repair through base excision repair pathway. The level of biotin-labeled ADP-ribose binding to histone can be detected by using the HT Universal Chemiluminescent PARP Assay Kit commercially available from Trevigen Corp. […] HT Universal Chemiluminescent PARP Assay Kit with Histone-coated Strip Wells, commercially available from Trevigen (US), Catalog #: 4676-096-K. […] 4. The PARP enzyme was carefully diluted with the 1×PARP buffer just before use, the diluted enzyme solution should be used as quickly as possible and the remaining solution should be discarded. […] 2. […] 1. […] 2. […] 4. […] After washing, equal volume of the PeroxyGlow A and B solutions were uniformly mixed, 100 μl of the solution was added to each well, and the chemiluminescent signals were recorded on a plate reader immediately. The readout of each well is converted into the percent inhibition. […] Note: the readout of the positive control well is designated as 100% enzyme activity; the readout of the negative control well is designated as 0% enzyme activity; and the activity X refers to the readout from respective concentration of each sample.

Chain of PARP-1 enzyme (P09874 whole entry): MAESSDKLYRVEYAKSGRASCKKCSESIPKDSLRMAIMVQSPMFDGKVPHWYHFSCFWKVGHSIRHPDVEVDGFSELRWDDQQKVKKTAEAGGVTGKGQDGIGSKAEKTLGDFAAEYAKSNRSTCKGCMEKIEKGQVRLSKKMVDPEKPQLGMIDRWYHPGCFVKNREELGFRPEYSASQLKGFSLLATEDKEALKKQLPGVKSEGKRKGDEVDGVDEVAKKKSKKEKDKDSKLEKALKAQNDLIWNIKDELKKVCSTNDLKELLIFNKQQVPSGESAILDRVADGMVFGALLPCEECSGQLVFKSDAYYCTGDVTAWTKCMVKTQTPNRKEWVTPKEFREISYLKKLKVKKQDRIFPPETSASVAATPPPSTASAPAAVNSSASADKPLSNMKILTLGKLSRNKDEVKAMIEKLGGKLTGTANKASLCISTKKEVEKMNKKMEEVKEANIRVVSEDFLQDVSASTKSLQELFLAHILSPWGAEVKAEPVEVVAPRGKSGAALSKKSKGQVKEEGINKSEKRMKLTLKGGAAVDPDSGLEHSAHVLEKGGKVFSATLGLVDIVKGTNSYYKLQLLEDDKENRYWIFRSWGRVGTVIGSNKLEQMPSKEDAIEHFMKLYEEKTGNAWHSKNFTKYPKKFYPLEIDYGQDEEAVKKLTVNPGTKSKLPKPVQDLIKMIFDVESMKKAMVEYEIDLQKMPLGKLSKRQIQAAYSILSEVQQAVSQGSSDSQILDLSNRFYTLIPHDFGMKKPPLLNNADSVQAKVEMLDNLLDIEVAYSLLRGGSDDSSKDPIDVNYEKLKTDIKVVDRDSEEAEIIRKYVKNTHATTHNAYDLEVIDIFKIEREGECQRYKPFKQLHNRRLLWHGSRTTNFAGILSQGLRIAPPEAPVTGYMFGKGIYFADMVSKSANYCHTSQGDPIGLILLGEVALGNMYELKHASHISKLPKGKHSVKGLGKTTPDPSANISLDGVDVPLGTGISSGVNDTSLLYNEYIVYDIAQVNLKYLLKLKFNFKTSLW

| SMILES | inhibition at 0.03 µM | inhibition at 0.1 µM |
| --- | --- | --- |
| NC(=O)c1cccc2[nH]c(N3CCN(c4ncc(F)cn4)CC3)nc12 [Compound (2), 2-(4-(5-fluoropyrimidin-2-yl)piperazin-1-yl)-1H-benzimidazole-4-carboxamide] | 42% | 69% |
| NC(=O)c1cc(F)cc2[nH]c(N3CCN(c4ccc(C(F)(F)F)cn4)CC3)nc12 [Compound (21), 6-fluoro-2-(4-(5-trifluoromethylpyridin-2-yl)piperazin-1-yl)-1H-benzimidazole-4-carboxamide] | 32% | 60% |
| NC(=O)c1cc(F)cc2[nH]c(N3CCN(c4ccc(C(F)(F)F)nn4)CC3)nc12 [Compound (31), 6-fluoro-2-(4-(6-trifluoromethylpyridazin-3-yl)piperazin-1-yl)-1H-benzimidazole-4-carboxamide] | 80% | 95% |
| NC(=O)c1cccc2[nH]c(N3CCN(c4cc(C(F)(F)F)ncn4)CC3)nc12 [Compound (10), 2-(4-(6-trifluoromethylpyrimidin-4-yl)piperazin-1-yl)-1H-benzimidazole-4-carboxamide] | 38% | 64% |
| NC(=O)c1cccc2[nH]c(N3CCN(c4ncccn4)CC3)nc12 [Compound (1), 2-(4-(pyrimidin-2-yl)piperazin-1-yl)-1H-benzimidazole-4-carboxamide] | 59% | 76% |
| NC(=O)c1cc(F)cc2[nH]c(N3CCN(c4ccncn4)CC3)nc12 [Compound (16), 6-fluoro-2-(4-(pyrimidin-4-yl)piperazin-1-yl)-1H-benzimidazole-4-carboxamide] | 78% | 91% |
| NC(=O)c1cc(F)cc2[nH]c(N3CCN(c4ncc(C(F)(F)F)cn4)CC3)nc12 [Compound (34), 6-fluoro-2-(4-(5-trifluoromethylpyrimidin-2-yl)piperazin-1-yl)-1H-benzimidazole-4-carboxamide] | 36% | 60% |
| CNC(=O)c1ccc(N2CCN(c3nc4c(C(N)=O)cc(F)cc4[nH]3)CC2)nc1 [Compound (24), 6-fluoro-2-(4-(5-methylcarbamoylpyridin-2-yl)piperazin-1-yl)-1H-benzimidazole-4-carboxamide] | 45% | 65% |
| NC(=O)c1cc(F)cc2[nH]c(N3CCN(c4cnc(C(=O)N5CCOCC5)cn4)CC3)nc12 [Compound (30), 6-fluoro-2-(4-(5-(morpholin-4-acyl)pyrazin-2-yl)piperazin-1-yl)-1H-benzimidazole-4-carboxamide] | 78% | 92% |
| CC(=O)Nc1cnc(N2CCN(c3nc4c(C(N)=O)cccc4[nH]3)CC2)nc1 [Compound (4), 2-(4-(5-acetamidopyrimidin-2-yl)piperazin-1-yl)-1H-benzimidazole-4-carboxamide] | 27% | 53% |
| NC(=O)c1cc(F)cc2[nH]c(N3CCN(c4ccc(C(F)(F)F)nc4)CC3)nc12 [Compound (32), 6-fluoro-2-(4-(6-trifluoromethylpyridine-3-yl)piperazin-1-yl)-1H-benzimidazole-4-carboxamide] | 66% | 84% |
| CNC(=O)c1cccnc1N1CCN(c2nc3c(C(N)=O)cc(F)cc3[nH]2)CC1 [Compound (20), 6-fluoro-2-(4-(3-methylcarbamoylpyridin-2-yl)piperazin-1-yl)-1H-benzimidazole-4-carboxamide] | 39% | 67% |
| CNC(=O)c1ccc(N2CCN(c3nc4c(C(N)=O)cc(F)cc4[nH]3)CC2)nn1 [Compound (23), 6-fluoro-2-(4-(6-methylcarbamoylpyridazin-3-yl)piperazin-1-yl)-1H-benzimidazole-4-carboxamide] | 78% | 89% |
| CN(C)C(=O)c1cnc(N2CCN(c3nc4c(C(N)=O)cc(F)cc4[nH]3)CC2)cn1 [Compound (36), 2-(4-(5-dimethylcarbamoylpyrazin-2-yl)piperazin-1-yl)-6-fluoro-1H-benzimidazole-4-carboxamide] | 83% | 92% |
| CNC(=O)c1cnc(N2CCN(c3nc4c(C(N)=O)cc(F)cc4[nH]3)CC2)cn1 [Compound (25), 6-fluoro-2-(4-(5-methylcarbamoylpyrazin-2-yl)piperazin-1-yl)-1H-benzimidazole-4-carboxamide] | 79% | 92% |
| NC(=O)c1cccc2[nH]c(N3CCN(c4ccncn4)CC3)nc12 [Compound (7), 2-(4-(pyrimidin-4-yl)piperazin-1-yl)-1H-benzimidazole-4-carboxamide] | 73% | 85% |
| N#Cc1cnc(N2CCN(c3nc4c(C(N)=O)cccc4[nH]3)CC2)nc1 [Compound (14), 2-(4-(5-cyanopyrimidin-2-yl)piperazin-1-yl)-1H-benzimidazole-4-carboxamide] | 57% | 78% |
| CC(C)NC(=O)c1cnc(N2CCN(c3nc4c(C(N)=O)cc(F)cc4[nH]3)CC2)cn1 [Compound (27), 6-fluoro-2-(4-(5-isopropylcarbamoylpyrazin-2-yl)piperazin-1-yl)-1H-benzimidazole-4-carboxamide] | 66% | 86% |
| N#Cc1cnc(N2CCN(c3nc4c(C(N)=O)cc(F)cc4[nH]3)CC2)cn1 [Compound (37), 2-(4-(5-cyanopyrazin-2-yl)piperazin-1-yl)-6-fluoro-1H-benzimidazole-4-carboxamide] | 87% | 98% |
| CCNC(=O)c1ncc(N2CCN(c3nc4c(C(N)=O)cc(F)cc4[nH]3)CC2)cn1 [Compound (40), 2-(4-(2-ethylcarbamoylpyrimidin-5-yl)piperazin-1-yl)-6-fluoro-1H-benzimidazole-4-carboxamide] | 77% | 93% |
| NC(=O)c1ccc(N2CCN(c3nc4c(C(N)=O)cccc4[nH]3)CC2)nc1 [Compound (12), 2-(4-(5-carbamoylpyridin-2-yl)piperazin-1-yl)-1H-benzimidazole-4-carboxamide] | 57% | 77% |
| CNC(=O)c1ncc(N2CCN(c3nc4c(C(N)=O)cc(F)cc4[nH]3)CC2)cn1 [Compound (39)] | 78% | 92% |
| NC(=O)c1cc(F)cc2[nH]c(N3CCN(c4cnc(C(F)(F)F)nc4)CC3)nc12 [Compound (33), 6-fluoro-2-(4-(2-trifluoromethylpyrimidin-5-yl)piperazin-1-yl)-1H-benzimidazole-4-carboxamide] | 88% | 98% |
| CCNc1cccnc1N1CCN(c2nc3c(C(N)=O)cccc3[nH]2)CC1 [Compound (8), 2-(4-(3-ethylaminopyridin-2-yl)piperazin-1-yl)-1H-benzimidazole-4-carboxamide] | 8% | 16% |
| CCNC(=O)c1cnc(N2CCN(c3nc4c(C(N)=O)cc(F)cc4[nH]3)CC2)cn1 [Compound (26), 2-(4-(5-ethylcarbamoylpyrazin-2-yl)piperazin-1-yl)-6-fluoro-1H-benzimidazole-4-carboxamide] | 80% | 94% |
| N#Cc1ncc(N2CCN(c3nc4c(C(N)=O)cc(F)cc4[nH]3)CC2)cn1 [Compound (38), 2-(4-(2-cyanopyrimidin-5-yl)piperazin-1-yl)-6-fluoro-1H-benzimidazole-4-carboxamide] | 84% | 95% |
| NC(=O)c1cc(F)cc2[nH]c(N3CCN(c4cnc(C(=O)N5CCCC5)cn4)CC3)nc12 [Compound (29), 6-fluoro-2-(4-(5-(pyrrolin-1-acyl)pyrazin-2-yl)piperazin-1-yl)-1H-benzimidazole-4-carboxamide] | 71% | 88% |
| CNC(=O)c1ccc(N2CCN(c3nc4c(C(N)=O)cccc4[nH]3)CC2)nc1 [Compound (11), 2-(4-(5-methylcarbamoylpyridin-2-yl)piperazin-1-yl)-1H-benzimidazole-4-carboxamide] | 59% | 78% |
| CNC(=O)c1cnc(N2CCN(c3nc4c(C(N)=O)cc(F)cc4[nH]3)CC2)nc1 [Compound (22), 6-fluoro-2-(4-(5-methylcarbamoylpyrimidin-2-yl)piperazin-1-yl)-1H-benzimidazole-4-carboxamide] | 71% | 93% |
| CN(C)C(=O)c1ccc(N2CCN(c3nc4c(C(N)=O)cc(F)cc4[nH]3)CC2)nc1 [Compound (18), 2-(4-(5-(dimethylcarbamoyl)pyridin-2-yl)piperazin-1-yl)-6-fluoro-1H-benzimidazole-4-carboxamide] | 56% | 77% |

— patent publication US10196381B2, “Benzimidazole-2-piperazine heterocyclic compound, pharmaceutical composition containing the same, preparation method and use thereof” (Shanghai Huilun Life Science & Technology Co., Ltd., priority 2013, dated 2019)
